# In patent publication US11123311B2, “Methods of treating mental disorders” (The Regents of the University of California, priority 2016, dated 2021):
# Legend:
# [1] = experimental logP; type: physicochemical; conditions: read-out: Exp/ logP
# [2] = biological target: T1, sEH (Homo sapiens (Human), UniProt P34913)
# [3] = tested on: mice after social defeat stress; conditions: single dose; literature (37,39); cited from earlier work
# [4] = 3 mg/kg PO; mice
# [5] = tested on: TNF-α; test: serum TNF-α after LPS administration; type: in vivo; conditions: TPPU 3.0 mg/kg PO
# Experimental: Inflammation model of depression. The procedure of inflammation model of depression was performed as previously reported (36). Behavioral tests were performed 24 hours after a single administration of LPS (0.5 mg/kg). […] Serum sample was collected 90 min after LPS administration, and serum levels of TNF-α were measured using a Ready-SET-Go ELISA kit (eBioscience Inc., San Diego, Calif.), according to manufacturer's instructions. […] Behavioral tests including locomotion (LMT), tail suspension test (TST), and forced swimming test (FST) were performed 1, 3, and 5 hours after administration. […] Behavioral tests including LMT, TST, and FST were performed 24, 26, and 28 hours after administration of LPS.
# [6] = in vivo; conditions: mouse, po, 3 mg/kg, 3 mg/kg PO, mice
# [7] = tested on: LPS-treated depressed mice; conditions: literature (36); cited from earlier work
# [8] = biological target: T1, sEH; test: inhibition of sEH (standard assays); type: biochemical
# Description: Any of a number of standard assays for determining epoxide hydrolase activity can be used to determine inhibition of sEH. […] Suitable in vitro assays are described in Zeldin et al., J Biol. Chem. 268:6402-6407 (1993). Suitable in vivo assays are described in Zeldin et al., Arch Biochem Biophys 330:87-96 (1996).
# The enzyme also can be detected based on the binding of specific ligands to the catalytic site which either immobilize the enzyme or label it with a probe such as dansyl, fluoracein, luciferase, green fluorescent protein or other reagent. The enzyme can be assayed by its hydration of EETs, its hydrolysis of an epoxide to give a colored product as described by Dietze et al., 1994, supra, or its hydrolysis of a radioactive surrogate substrate (Borhan et al., 1995, supra). The enzyme also can be detected based on the generation of fluorescent products following the hydrolysis of the epoxide. Numerous methods of epoxide hydrolase detection have been described (see, e.g., Wixtrom, supra).
# The assays are normally carried out with a recombinant enzyme following affinity purification. They can be carried out in crude tissue homogenates, cell culture or even in vivo, as known in the art and described in the references cited above.
# [9] = tested on: neuronal cell cultures; conditions: literature (34); cited from earlier work
# [10] = tested on: astrocyte; conditions: literature (54); cited from earlier work
# [11] = tested on: PC12 cells; test: NGF-induced neurite outgrowth in PC12 cells; type: cell-based; conditions: TPPU 0.1, 1.0 or 10 μM, 14,15-EET 0.01, 0.1 or 1.0 μM, concentration dependent
# Experimental: PC12 cells (RIKEN Cell Bank, Tsukuba, Japan) were cultured at 37° C., 5% CO2 in Dulbecco's modified Eagle's medium (DMEM), supplemented with 5% heat-inactivated fetal bovine serum (FBS), 10% heat-inactivated horse serum, and 1% penicillin-streptomycin. Medium was changed two to three times a week. PC12 cells were plated onto 24-well tissue culture plates coated with poly-D-lysine/laminin. Cells were plated at relatively low density (0.25×10^4 cells/cm^2) in DMEM medium containing 0.5% FBS, 1% penicillin-streptomycin. Medium containing a minimal level of serum (0.5% FBS) was used as previously reported (58-60). […]. Four days after incubation with NGF (2.5 ng/ml) with or without specified compounds, morphometric analysis was performed on digitized images of live cells taken under phase-contrast illumination, with an inverted microscope linked to a camera. Images of three fields per well were taken, with an average of 100 cells per field. Differentiated cells were counted by visual examination of the field; only cells that had at least one neurite with a length equal to the cell body diameter were counted, and were then expressed as a percentage of the total cells in the field. Counting was performed in a blinded manner.
# T1 sequence (P34913 whole entry): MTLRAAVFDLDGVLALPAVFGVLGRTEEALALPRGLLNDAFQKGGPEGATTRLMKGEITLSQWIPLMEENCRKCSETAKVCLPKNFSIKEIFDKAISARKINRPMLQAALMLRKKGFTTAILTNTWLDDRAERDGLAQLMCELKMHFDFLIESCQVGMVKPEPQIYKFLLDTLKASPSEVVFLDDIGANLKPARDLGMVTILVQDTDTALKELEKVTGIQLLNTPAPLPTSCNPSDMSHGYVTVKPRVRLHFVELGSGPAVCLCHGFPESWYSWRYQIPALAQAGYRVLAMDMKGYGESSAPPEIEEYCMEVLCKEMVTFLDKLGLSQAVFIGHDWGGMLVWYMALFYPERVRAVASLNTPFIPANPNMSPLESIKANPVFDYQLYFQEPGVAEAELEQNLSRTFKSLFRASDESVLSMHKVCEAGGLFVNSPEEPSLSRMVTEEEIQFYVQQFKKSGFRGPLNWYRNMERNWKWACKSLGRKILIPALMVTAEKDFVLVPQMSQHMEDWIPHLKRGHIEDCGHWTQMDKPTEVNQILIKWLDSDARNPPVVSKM
compound,measurement,setting,value
CC[C@H](C)C(=O)N1CCC(NC(=O)Nc2ccc(C(F)(F)F)nc2)CC1 [Compound 42],logP,[1],3.22
same,t1/2 (human sEH),[2],0.0617 h
CNC1(c2ccccc2Cl)CCCCC1=O (stereo not drawn) [ketamine],antidepressant effect in the social defeat stress model,[3],rapid antidepressant effect
CCC(=O)N1CCC(NC(=O)Nc2ccc(OC(F)(F)F)cc2)CC1 [TPPU],half-life in the blood (plasma),[4],17.8 h
same,half-life in the cerebral cortex,[4],10.7 h
same,serum levels of TNF-α in control mice,[5],no effect
same,half-life,[6]; half-life in the blood (plasma),17.8 h
same,half-life,[6]; half-life in the cerebral cortex,10.7 h
CC(C)C(=O)N1CCC(NC(=O)Nc2ccc(OC(F)(F)F)cc2)CC1 [Compound 2389],logP,[1],3.37
same,t1/2 (human sEH),[2],0.3 h
CN[C@@]1(c2ccccc2Cl)CCCCC1=O [R-ketamine],antidepressant effect in the social defeat stress model,[3],rapid antidepressant effect
Fc1ccc([C@@H]2CCNC[C@H]2COc2ccc3c(c2)OCO3)cc1 [paroxetine],effect in the LPS-induced inflammation model of depression,[7],do not have any effect
O=C(Nc1ccc(OC(F)(F)F)cc1)NC1CCN(C(=O)C2(C(F)(F)F)CC2)CC1 [Compound 28],logP,[1],4.63
"CCCCCCCCCCCCNC(=O)NC12CC3CC(CC(C3)C1)C2 [ADU, N-Adamantyl-N′-dodecyl urea]",activity as an inhibitor of sEH,[8],particularly high activity
"CCCCCC1OC1C/C=C\C/C=C\C/C=C\CCCC(=O)O (stereo not drawn) [14,15-EET]",axonal growth,[9],enhance axonal growth
same,production of BDNF,[10],promote the production of BDNF
same,NGF-induced neurite outgrowth,[11],potentiated
COc1ccc(C(CN(C)C)C2(O)CCCCC2)cc1 (stereo not drawn) [venlafaxine],effect in the LPS-induced inflammation model of depression,[7],do not have any effect
